Source: patent US11905417B2, “Anthraquinone compound, liquid crystal composition for dimming including said compound, and dimming element” (Nippon Kayaku Kabushiki Kaisha, priority 2020, dated 2024)

Legend:
[1] = Evaluation of solubility of compounds in liquid crystal material (maximum dissolution amount, visual observation); format: physicochemical; settings: in liquid crystal material (cyanobiphenyl/terphenyl mixture), room temperature, 0.5% steps, tested up to about 4.5% by mass
Procedure: (§1) When a uniform composition with no insoluble matter was obtained, a procedure of further adding 0.003 parts of the compound represented by No. 2, stirring the mixture at room temperature for 1 hour, and then visually observing the appearance of the composition was repeated until a dissolution amount (see the following) reached about 4.5% by mass. The solubility of the compound represented by No. 2 in the liquid crystal material was evaluated by the maximum addition amount at which a uniform composition with no insoluble matter was obtained.
When a uniform composition with no insoluble matter was obtained even after 0.024 parts of the compound were added, the maximum dissolution amount was provisionally determined to be “about 4.5% by mass”.

[2] = Evaluation of contrast of compositions at maximum dissolution amount encapsulated in a cell (C=Ky/Kz at λmax); settings: absorption peak wavelength of the composition in the cell
Text: The compositions obtained in Examples 3 and 4 and Comparative Examples 6 to 10 were each encapsulated in an element made of two upper and lower glass substrates each having a transparent electrode with an inter-substrate gap of 15 μm, in which the surface of each glass substrate in contact with a liquid crystal was rubbed with a polyamide-based resin and was subjected to a homogeneous orientation treatment. When no voltage was applied in the element subjected to the orientation treatment, the liquid crystal was in a homogeneously oriented state, and dye molecules were also in the same orientation according to the host liquid crystal.
Each of the uniform compositions with no insoluble matter, which were obtained in the above-mentioned “Evaluation of Solubilities of Compounds of Examples according to Present Invention and Compounds of Comparative Examples in Liquid Crystal Material” and which were each made in the maximum dissolution amount, was encapsulated in a cell. In the cell in which each of the uniform compositions was encapsulated, a transmittance (Ky) of linearly polarized light parallel to the orientation direction and a transmittance (Kz) of polarized light perpendicular to the orientation direction were measured, and a contrast (C) at its absorption peak wavelength (λmax) was determined from the following expression. C=Ky/Kz

[3] = Evaluation of solubility of compounds in liquid crystal material, photocurable compound, and photopolymerization initiator; format: physicochemical; settings: room temperature, 0.5% steps, tested up to about 3.5% by mass
Procedure: as §1, with “0.005” for “0.003”, “3.5%” for “4.5%”, “material, the photocurable compound, and the photopolymerization initiator” for “material”
When a uniform composition with no insoluble matter was obtained even after 0.030 parts of the compound were added, the maximum dissolution amount was provisionally determined to be “about 3.5% by mass”.

| Maximum dissolution amount [1] [% by mass] | λmax(nm) [2] [nm] | Maximum dissolution amount [3] [% by mass] | SMILES |
| --- | --- | --- | --- |
| 4.5 | 460 | 3.5 | CCCCCCCCC(CCCCCC)C(=O)Oc1ccc(Sc2cccc3c2C(=O)c2cccc(Sc4ccc(OC(=O)C(CCCCCC)CCCCCCCC)cc4)c2C3=O)cc1 (stereo not drawn) [No.2] |
| 3.5 | 462 | 3.5 | CCCCC(CC)C(=O)Oc1ccc(Sc2cccc3c2C(=O)c2cccc(Sc4ccc(OC(=O)C(CC)CCCC)cc4)c2C3=O)cc1 (stereo not drawn) [No.3] |

Continued, compound first:

| SMILES | Maximum dissolution amount [1] [% by mass] | λmax(nm) [2] [nm] | Maximum dissolution amount [3] [% by mass] |
| --- | --- | --- | --- |
| CC(C)(C)c1ccc(Sc2cccc3c2C(=O)c2cccc(Sc4ccc5ccccc5c4)c2C3=O)cc1 [Formula(A)] | 1.0 | 462 | 0.5 |
| CC(CC(=O)Oc1ccc(Sc2cccc3c2C(=O)c2cccc(Sc4ccc(OC(=O)CC(C)CC(C)(C)C)cc4)c2C3=O)cc1)CC(C)(C)C (stereo not drawn) [Formula(D)] | 2.0 | 462 | 1.0 |
| CCCCCC(C)CCC(=O)Oc1ccc(Sc2cccc3c2C(=O)c2cccc(Sc4ccc(OC(=O)CCC(C)CCCCC)cc4)c2C3=O)cc1 (stereo not drawn) [Formula(E)] | 2.0 | 460 | 1.0 |
